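Compound exposure: 48 hours, 5 concentrations, 96-well plates. GI50: concentration for 50% inhibition of growth.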 Calls of active or inactive are those of the source. Rule as the data show it: active = GI50 up to about 1.1 µM and inactive = higher.
Assays:
Test in all cases: NCI anticancer screen, dose series, 48 h
MDA-N = system: MDA-N
NCI-H226 = system: NCI-H226
OVCAR-8 = system: OVCAR-8
HL-60 = system: HL-60
SF-539 = system: SF-539
UACC-257 = system: UACC-257
HOP-62 = system: HOP-62
SN12C = system: SN12C
RPMI-8226 = system: RPMI-8226
K562 = system: K562
U-251 = system: U-251
SK-MEL-5 = system: SK-MEL-5
SK-MEL-2 = system: SK-MEL-2
HT-29 = system: HT-29
NCI-H522 = system: NCI-H522
SK-OV-3 = system: SK-OV-3
Malme-3M = system: Malme-3M
A498 = system: A498
NCI/ADR-RES = system: NCI/ADR-RES
IGROV-1 = system: IGROV-1

Structure (SMILES) | GI50 (MDA-N) | GI50 (NCI-H226) | GI50 (OVCAR-8) | GI50 (HL-60) | GI50 (SF-539) | GI50 (UACC-257) | GI50 (HOP-62) | GI50 (SN12C) | GI50 (RPMI-8226) | GI50 (K562) | GI50 (U-251) | GI50 (SK-MEL-5) | GI50 (SK-MEL-2) | GI50 (HT-29) | GI50 (NCI-H522) | GI50 (SK-OV-3) | GI50 (Malme-3M) | GI50 (A498) | GI50 (NCI/ADR-RES) | GI50 (IGROV-1)
CC(C)(C)NCc1cc(Nc2ccnc3cc(Cl)ccc23)cc(-c2ccc(Cl)cc2)c1O | 1.68 µM (inactive) | 6.12 µM (inactive) | 3.81 µM (inactive) | 1.97 µM (inactive) | 1.85 µM (inactive) | 2.03 µM (inactive) | 2.06 µM (inactive) | 3.11 µM (inactive) | 1.69 µM (inactive) | 1.04 µM (active) | 2.59 µM (inactive) | 1.77 µM (inactive) | 2.24 µM (inactive) | 1.87 µM (inactive) | 3.65 µM (inactive) | 3.07 µM (inactive) | 1.84 µM (inactive) | 2.94 µM (inactive) | 3.05 µM (inactive) | 2.02 µM (inactive)
CC1C(OS(=O)(=O)c2ccc3nc(S)sc3c2)CC2C3(C)CCC2(C(C)C(=O)O)C(O)C13 (stereo not given) | 22.4 µM (inactive) | 19.8 µM (inactive) | 20.1 µM (inactive) | 23.7 µM (inactive) | 17.6 µM (inactive) | 75.7 µM (inactive) | 29.1 µM (inactive) | 28 µM (inactive) | 11.5 µM (inactive) | 26.2 µM (inactive) | 16.2 µM (inactive) | 14.8 µM (inactive) | 29.2 µM (inactive) | 17.5 µM (inactive) | 3.29 µM (inactive) | 40.7 µM (inactive) | 27.2 µM (inactive) | 54.7 µM (inactive) | 33 µM (inactive) | 11.4 µM (inactive)
CCCCCCc1cc2cc(C(=O)NCc3ccccc3)c(=N)oc2cc1O | > 100 µM (inactive) | > 100 µM (inactive) | > 100 µM (inactive) | > 100 µM (inactive) | > 100 µM (inactive) | > 100 µM (inactive) | > 100 µM (inactive) | > 100 µM (inactive) | > 100 µM (inactive) | > 100 µM (inactive) | > 100 µM (inactive) | > 100 µM (inactive) | > 100 µM (inactive) | > 100 µM (inactive) | > 100 µM (inactive) | > 100 µM (inactive) | > 100 µM (inactive) | > 100 µM (inactive) | > 100 µM (inactive) | > 100 µM (inactive)
O=C(Nc1nc(C23CC4CC(CC(C4)C2)C3)cs1)c1cc2cc(Br)cc(Br)c2oc1=O | 87.5 µM (inactive) | 33.2 µM (inactive) | 34.4 µM (inactive) | 65.5 µM (inactive) | 51.8 µM (inactive) | > 100 µM (inactive) | 70.8 µM (inactive) | 31.8 µM (inactive) | 67.9 µM (inactive) | 42.5 µM (inactive) | 20.3 µM (inactive) | > 100 µM (inactive) | 51.5 µM (inactive) | > 100 µM (inactive) | > 100 µM (inactive) | > 100 µM (inactive) | > 100 µM (inactive) | > 100 µM (inactive) | > 100 µM (inactive) | > 100 µM (inactive)
C/C(=N\NC(=S)NC(C)(C)C)c1nc2cccnc2[nH]1 | 7.38 µM (inactive) | 3.4 µM (inactive) | 1.5 µM (inactive) | 1.2 µM (inactive) | 3.21 µM (inactive) | 3.09 µM (inactive) | 6.15 µM (inactive) | 7.74 µM (inactive) | 6.05 µM (inactive) | 1.83 µM (inactive) | 1.15 µM (inactive) | 2.21 µM (inactive) | 3.85 µM (inactive) | 1.71 µM (inactive) | 4.53 µM (inactive) | 3.08 µM (inactive) | 4.49 µM (inactive) | 18.6 µM (inactive) | 3.03 µM (inactive) | 3.06 µM (inactive)
CS(=O)(=O)C(=Cc1ccccc1Cl)S(C)(=O)=O | > 46.5 µM (inactive) | > 100 µM (inactive) | > 100 µM (inactive) | 1.14 µM (inactive) | > 100 µM (inactive) | > 100 µM (inactive) | > 100 µM (inactive) | > 100 µM (inactive) | > 100 µM (inactive) | 3.7 µM (inactive) | > 100 µM (inactive) | > 92 µM (inactive) | > 100 µM (inactive) | > 100 µM (inactive) | > 100 µM (inactive) | > 100 µM (inactive) | > 100 µM (inactive) | > 100 µM (inactive) | > 100 µM (inactive) | > 100 µM (inactive)
CN(C)P(=O)(Oc1ccc(CC(NC(=O)OCc2ccccc2)C(=O)OCc2ccccc2)cc1)N(C)C (stereo not given) | 16.8 µM (inactive) | 26.4 µM (inactive) | 15.9 µM (inactive) | 13.2 µM (inactive) | 22.3 µM (inactive) | 21.4 µM (inactive) | 17.1 µM (inactive) | 15.1 µM (inactive) | 2.77 µM (inactive) | 22.7 µM (inactive) | 13.8 µM (inactive) | 20.7 µM (inactive) | 15.6 µM (inactive) | 10.1 µM (inactive) | 13.9 µM (inactive) | 17.8 µM (inactive) | 17.3 µM (inactive) | 19.4 µM (inactive) | 17.9 µM (inactive) | 17.2 µM (inactive)

— ChEMBL document CHEMBL1201862, “PubChem BioAssay data set” (2004)
